# Like-named read-outs stand apart in the source and are kept apart here. Where a SMILES comes first, the peptide text is derived from it. The star is where a group is joined. Cbz = O=C(OCc1ccccc1)*
# How the values were obtained:
# [1] = tested on: p53 protein levels in HUVECs; test: α-p53 immunoblot of treated HUVECs; format: cell-based; settings: 5 μM
# Experimental: The tumor suppressor p53 is a known target of the proteasome.
# (§1) The control experiment (Crtl) was carried out with vehicle only.
# [2] = molecular target: T1, chymotrypsin-like activity of purified bovine erythrocyte 20S proteasome (Bos taurus, UniProt Q32KL2); test: Enzyme kinetic assay, chymotrypsin-like activity (Suc-LLVY-AMC); format: biochemical; settings: for kobs/[I] Chymotrypsin-like: Table 3; for kobs/[I] for chymotryptic-like activity using Suc-LLVY-AMC: Examples 9 and 10, in M-1s-1; for kassoc = kobs/[I] (chymotrypsin-like activity inhibition): Table 5; for kassoc = kobs/[I] Chymotrypsin-like activity: Table 2, inhibitor concentration range in the line below
# T1 construct: from tissue; host or cells: bovine erythrocytes (red blood cells)
# From the text: (§2) We investigated the potency of inhibitors of various length. Mono-, di-,tri- and tetraleucine α′,β′-epoxides were ranked by determination of the kobs/[I] values for inhibition of the chymotrypsin-like, trypsin-like, and PGPH activities of purified bovine erythrocyte 20S proteasome.
# (§3) Purified bovine erythrocyte proteasome was enzymatically assayed using a variety of different substrates and inhibitors. In order to evaluate the rates of proteolytic inactivation by inhibitors, kassociation (kobs/[I]) values were determined using fluorogenic peptide substrates over a range of inhibitor concentrations.
# [3] = molecular target: T2, trypsin-like activity of purified bovine erythrocyte 20S proteasome (Bos taurus, UniProt Q2TBP0); test: Enzyme kinetic assay, trypsin-like activity (Boc-LRR-AMC); format: biochemical; settings: for inhibition of the trypsin-like activity of the proteasome: in words; for kobs/[I] for tryptic-like activity using Boc-LRR-AMC: Examples 9 and 10; for kassoc = kobs/[I] Trypsin-like activity: Table 2, inhibitor concentration range in the line below
# T2 construct: from tissue; host or cells: bovine erythrocytes (red blood cells)
# From the text: as §2, §3
# [4] = molecular target: T3, PGPH activity of purified bovine erythrocyte 20S proteasome (Bos taurus, UniProt Q3MHN0); test: Enzyme kinetic assay, PGPH activity (Z-LLE-AMC); format: biochemical; settings: for kobs/[I] PGPH: Table 3; for selectivity for the PGPH activity: in words, data not shown for Glu compounds; for kobs/[I] for PGPH activity using Z-LLE-AMC: Examples 9 and 10; for kassoc = kobs/[I] PGPH activity: Table 2, inhibitor concentration range in the line below
# T3 construct: from tissue; host or cells: bovine erythrocytes (red blood cells)
# Experimental: as §2, with “proteasome. Enzyme kinetic assays were performed as described in Example 2.” for “proteasome.”
# as §3
# [5] = tested on: bovine aortic endothelial (BAE) cells; test: BAE cell proliferation ([methyl-3H]-thymidine incorporation); format: cell-based
# Experimental: BAE cells were cultured at 7% CO2 and were grown in DMEM supplemented with 10% FBS, 1% penicillin/streptomycin (GIBCO), and 1 mM sodium pyruvate.
# Approximately 1000 BAE cells were plated into each well of a 96-well culture plate. After an overnight incubation, different concentrations of proteasome inhibitors were added and incubation was continued for another five days. […] Subsequently, 74 kBq of [methyl-^3H]-thymidine was added to each well of the plate and the plate was incubated for another additional 4 hours. Cells were harvested using a Skatron Cell Harvester and incorporated radioactivity was quantified using liquid scintillation. Proliferation of BAE cells was assayed in triplicate in the presence of different concentrations of peptide epoxides.
# Perturbation of the proteasome activity can result in inhibition of cell growth, and can further lead to cell death at elevated concentration of the proteasome inhibitors. This provides an excellent cell-based assay to assess the importance of each catalytic activity of the 20S proteasome in degradation of proteins involved in cell growth. We measured inhibition of proliferation of bovine aortic endothelial (BAE) cells with our α′,β′-epoxyketone-based inhibitors with varying degree of specificity for the PGPH activity.
# [6] = tested on: mice, DNFB applied to the ear; test: DNFB ear inflammation (irritant sensitivity response); format: in vivo; settings: single dose one hour before DNFB, 24 hours
# Experimental: Ear thickness was measured at 0 and 24 hours after DNFB application.
# [7] = molecular target: T4, purified murine spleen proteasome (Mus musculus, UniProt O35955+P28063+P70195); test: [3H]-epoxomicin binding to purified proteasome; settings: compared with epoxomicin-biotin
# T4 construct: from tissue; host or cells: murine spleen
# T4 sequence (P28063 73-276): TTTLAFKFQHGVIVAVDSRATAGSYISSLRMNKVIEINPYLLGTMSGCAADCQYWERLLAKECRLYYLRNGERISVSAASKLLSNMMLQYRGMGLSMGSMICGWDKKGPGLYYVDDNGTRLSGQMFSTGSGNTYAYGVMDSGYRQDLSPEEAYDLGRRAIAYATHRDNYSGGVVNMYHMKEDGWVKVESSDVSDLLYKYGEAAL
# T4 sequence (O35955 40-273): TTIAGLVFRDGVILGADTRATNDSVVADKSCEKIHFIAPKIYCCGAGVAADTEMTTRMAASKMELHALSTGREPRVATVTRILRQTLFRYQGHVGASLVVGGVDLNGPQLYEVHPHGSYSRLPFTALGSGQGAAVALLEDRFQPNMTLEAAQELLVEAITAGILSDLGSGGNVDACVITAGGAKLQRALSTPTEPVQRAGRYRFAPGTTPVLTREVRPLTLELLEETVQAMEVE
# T4 sequence (P70195 44-277): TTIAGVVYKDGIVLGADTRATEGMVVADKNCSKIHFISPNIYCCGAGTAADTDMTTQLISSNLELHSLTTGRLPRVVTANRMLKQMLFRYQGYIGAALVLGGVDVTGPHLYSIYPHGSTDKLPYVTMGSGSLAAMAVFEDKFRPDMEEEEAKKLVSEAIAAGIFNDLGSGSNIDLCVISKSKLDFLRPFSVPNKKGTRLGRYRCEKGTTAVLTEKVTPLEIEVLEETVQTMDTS
# cathepsin B = cathepsin B (Homo sapiens, UniProt P07858); test: Cathepsin B inhibition assay
# [8] = tested on: ubiquitinated proteins in Hela cells; test: α-ubiquitin immunoblot of treated Hela cells; format: cell-based; settings: epoxomicin 10 μM, 2 hours
# Experimental: as §1
# [9] = Table 6, PGPH-directed inhibitors
smiles,measurement,setting,value
CC(=O)N[C@@H](CSC(=O)[C@]1([C@@H](O)C(C)C)NC(=O)[C@H](C)[C@@H]1O)C(=O)O [lactacystin],increase of p53 levels over untreated cells,[1],10 fold
CC(=O)N[C@@H](CCc1ccccc1)C(=O)N[C@@H](CC(C)C)C(=O)N[C@@H](Cc1ccccc1)C(=O)N[C@@H](CC(C)C)C(=O)[C@@]1(C)CO1 [compound 16],kinact/KI,"[2]; pH 8, read-out: kobs/[I] for chymotryptic-like activity using Suc-LLVY-AMC",183000 M⁻¹ s⁻¹
same,kinact/KI,"[2]; pH 8, Table 4, inhibitor concentration range in parentheses, read-out: kassoc = kobs/[I] Chymotrypsin-like activity",166000 M⁻¹ s⁻¹
same,kinact/KI,"[3]; pH 8, Table 4, inhibitor concentration range in parentheses, read-out: kassoc = kobs/[I] Trypsin-like activity",7.1 M⁻¹ s⁻¹
same,kinact/KI,"[4]; pH 8, Table 4, inhibitor concentration range in parentheses, read-out: kassoc = kobs/[I] PGPH activity",21 M⁻¹ s⁻¹
same,IC50,"[5]; Bos taurus, 120 h, Table 5, five days incubation",20 nM
same,inhibition of ear inflammation / ear swelling over vehicle-treated controls,[6]; high dose 2.0 mg/kg (3.6 μmol/kg),12 fold
same,inhibition of ear inflammation / ear swelling over vehicle-treated controls,[6]; low dose 0.32 mg/kg (0.58 μmol/kg),reducing ear swelling by the same amount as epoxomicin
CC(=O)NCC(=O)N1CCC[C@H]1C(=O)N[C@@H](Cc1ccccc1)C(=O)N[C@@H](CC(C)C)C(=O)C1(C)CO1 (stereo partly drawn) [Ac-GPFL-Ex],kobs/[I] Chymotrypsin-like,[2],5 ± 1 M⁻¹ s⁻¹
same,inhibition of the trypsin-like activity of the proteasome,[3],no inhibition
same,selectivity: fold higher kobs/[I] for inhibition of the PGPH activity than the chymotrypsin-like activity,[4]; PGPH vs chymotrypsin-like,35 fold
same,kobs/[I] PGPH,[4],190 ± 10 M⁻¹ s⁻¹
same,IC50,[5]; [9],58000 nM
CC(C)C[C@H](NC(=O)[C@H](Cc1ccccc1)NC(=O)[C@@H]1CCCN1C(=O)c1ccc(N(C)C)cc1)C(=O)[C@@]1(C)CO1 [N-dimethylaminobenzoyl-PFL-EX],kobs/[I] Chymotrypsin-like,[2],220 ± 70 M⁻¹ s⁻¹
same,inhibition of the trypsin-like activity of the proteasome,[3],no inhibition
same,kobs/[I] PGPH,[4],150 ± 40 M⁻¹ s⁻¹
same,selectivity for the PGPH activity,[4],no selectivity
same,IC50,[5]; [9],400 nM
CC(=O)N[C@@H](CC(C)C)C(=O)N[C@@H](CC(C)C)C(=O)N[C@@H](C)C(=O)N[C@@H](CC(C)C)C(=O)[C@@]1(C)CO1 [Ac-LLAL-epoxide],kobs/[I] for chymotryptic-like activity using Suc-LLVY-AMC,[2],"16,000"
same,kassoc = kobs/[I] (chymotrypsin-like activity inhibition),[2],"16,000 M^−1 s^−1"
same,kobs/[I] for tryptic-like activity using Boc-LRR-AMC,[3],4.1 M⁻¹ s⁻¹
same,kobs/[I] for PGPH activity using Z-LLE-AMC,[4],20
same,IC50,"[5]; Table 5, five days incubation",34 nM
CC(C)C[C@H](NC(=O)[C@H](Cc1ccccc1)NC(=O)[C@@H]1CCCN1C(=O)c1cnccn1)C(=O)C1(C)CO1 (stereo partly drawn) [Pyrazinecarbonyl-PFL-Ex],kobs/[I] Chymotrypsin-like,[2],520 ± 40 M⁻¹ s⁻¹
same,kobs/[I] Trypsin-like,[3]; Table 3,3.7 ± 1.1 M⁻¹ s⁻¹
same,kobs/[I] PGPH,[4],23 ± 3 M⁻¹ s⁻¹
same,IC50,[5]; [9],400 nM
CC(C)CCCCC(=O)N1CCC[C@H]1C(=O)N[C@@H](Cc1ccccc1)C(=O)N[C@@H](CC(C)C)C(=O)[C@@]1(C)CO1 [Isooctanioc-PFL-Ex],kobs/[I] Chymotrypsin-like,[2],190 ± 60 M⁻¹ s⁻¹
same,inhibition of the trypsin-like activity of the proteasome,[3],no inhibition
same,kobs/[I] PGPH,[4],194 ± 4 M⁻¹ s⁻¹
same,selectivity for the PGPH activity,[4],no selectivity
same,IC50,[5]; [9],600 nM
[3H]C([3H])([3H])C(=O)N(C)[C@H](C(=O)N[C@H](C(=O)N[C@H](C(=O)N[C@@H](CC(C)C)C(=O)[C@@]1(C)CO1)[C@@H](C)O)[C@@H](C)CC)[C@@H](C)CC [[^3H] epoxomicin],protein binding pattern,[7],same protein binding pattern observed with epoxomicin-biotin
CC(=O)N[C@@H](CC(C)C)C(=O)N[C@@H](Cc1ccccc1)C(=O)N[C@@H](CC(C)C)C(=O)N[C@@H](CC(C)C)C(=O)[C@@]1(C)CO1 [Ac-LFLL-epoxide],kobs/[I] for chymotryptic-like activity using Suc-LLVY-AMC,[2],"8,500"
same,kassoc = kobs/[I] (chymotrypsin-like activity inhibition),[2],8500 M⁻¹ s⁻¹
same,kobs/[I] for tryptic-like activity using Boc-LRR-AMC,[3],not measurable
same,kobs/[I] for PGPH activity using Z-LLE-AMC,[4],not measurable
same,IC50,"[5]; Table 5, five days incubation",16 nM
CC(=O)N[C@@H](CC(C)C)C(=O)N[C@@H](CC(C)C)C(=O)N[C@@H](Cc1ccccc1)C(=O)N[C@@H](CC(C)C)C(=O)[C@@]1(C)CO1 [Ac-LLFL-epoxide],kobs/[I] for chymotryptic-like activity using Suc-LLVY-AMC,[2],"54,000"
same,kassoc = kobs/[I] (chymotrypsin-like activity inhibition),[2],"54,000 M^−1 s^−1"
same,kobs/[I] for tryptic-like activity using Boc-LRR-AMC,[3],not measurable
same,kobs/[I] for PGPH activity using Z-LLE-AMC,[4],not measurable
same,IC50,"[5]; Table 5, five days incubation",7 nM
"CC(C)C[C@@H](/C=C/S(C)(=O)=O)NC(=O)[C@H](CC(C)C)NC(=O)[C@H](CC(C)C)NC(=O)Cc1cc(I)c(O)c([N+](=O)[O-])c1 [NLVS, reference compound]",kassoc = kobs/[I] Chymotrypsin-like activity,[2],6790 ± 919 M⁻¹ s⁻¹
same,kassoc = kobs/[I] Trypsin-like activity,[3],5.3 ± 2.8 M⁻¹ s⁻¹
same,kassoc = kobs/[I] PGPH activity,[4],6.4 ± 2.3 M⁻¹ s⁻¹
same,inhibition of cathepsin B enzymatic activity,cathepsin B; at 10 μM,significantly inhibited
"CC(C)[C@H](O)[C@@]12NC(=O)[C@H](C)[C@@H]1OC2=O [clasto-lactacystin β lactone, clasto-lactacystin β-lactone, reference compound]",kassoc = kobs/[I] Chymotrypsin-like activity,[2],8530 ± 280 M⁻¹ s⁻¹
same,kassoc = kobs/[I] Trypsin-like activity,[3],253 ± 41 M⁻¹ s⁻¹
same,kassoc = kobs/[I] PGPH activity,[4],37 ± 4.7 M⁻¹ s⁻¹
same,inhibition of cathepsin B enzymatic activity,cathepsin B; at 50 μM,significantly inhibited
CC(=O)N[C@@H](CC(C)C)C(=O)N[C@@H](C)C(=O)N[C@@H](CC(C)C)C(=O)N[C@@H](CC(C)C)C(=O)[C@@]1(C)CO1 [Ac-LALL-epoxide],kobs/[I] for chymotryptic-like activity using Suc-LLVY-AMC,[2],"1,300"
same,kassoc = kobs/[I] (chymotrypsin-like activity inhibition),[2],1300 M⁻¹ s⁻¹
same,kobs/[I] for tryptic-like activity using Boc-LRR-AMC,[3],2 M⁻¹ s⁻¹
same,kobs/[I] for PGPH activity using Z-LLE-AMC,[4],130
same,IC50,"[5]; Table 5, five days incubation",700 nM
CC(C)C[C@@H](C=O)NC(=O)[C@H](CC(C)C)NC(=O)[C@H](CC(C)C)NC(=O)OCc1ccccc1 [Z-LLL-H] (Cbz-Leu-Leu-Leu-aldehyde),accumulation of ubiquitinated proteins (anti-ubiquitin antibody),[8],upper molecular weight bands were also observed

# Source: patent US7476650B2, “Enzyme inhibition” (Yale University, priority 1999, dated 2009)
